# Patent US8058227B2, “Method of treating fibrosis in a subject in need thereof comprising administering a composition comprising a CSD” (Medical University of South Carolina, priority 2006, dated 2011)
# Legend:
# [1] = test system: normal lung fibroblasts (NLF); assay: CSD peptide treatment of NLF, Western blotting; format: cell-based, human
# Excerpt: (§1) Fibroblasts were derived from lung tissue obtained at autopsy from scleroderma patients (SLF) and from age-, race-, and sex-matched normal subjects (NLF) and cultured as previously described (44). Cells were used in passages 2-4. The group of scleroderma patients fulfilled the criteria of American college of Rheumatology for the diagnosis of scleroderma with lung involvement. Normal human lung tissue was obtained from the Brain and Tissue Bank for Developmental Disorders (Baltimore, Md.) or from the National Disease Research Interchange (Philadelphia, Pa.). Scleroderma lung tissue was obtained from the Division of Pathology and Laboratory Medicine at the Medical University of South Carolina (MUSC). The study was approved by the Institutional Review Board for Human Subject Research at the MUSC.
# (§2) The CSD peptide (amino acids 82-101 of caveolin-1; […]) (SEQ ID NO: 1) and a scrambled control peptide ([…]) (SEQ ID NO: 2) were synthesized as fusion peptides to the C terminus of the Antennapedia internalization sequence (RQIKUVFQNRRMKWKK) (SEQ ID NO: 3). Before each experiment, desiccated peptides were dissolved at a final 1 mM in 10% DMSO as described by Bernatchez et al. (4). Cells in 6-well plates at 70-80% confluence were then incubated with 1 ml serum-free DMEM containing […] CSD or scrambled peptide. After 6 h, the culture medium and cell layer were harvested.
# (§3) Cell layers were harvested in boiling SDS-PAGE sample buffer; medium was dialyzed, lyophilized, and resuspended in sample buffer. Aliquots of culture medium or of cell layer representing material derived from the same number of cells was probed using the following primary antibodies and appropriate secondary antibodies. Culture medium: goat anti-human collagen I (AB758P) and rabbit anti-human tenascin-C (AB19011) from Chemicon International (Temecula, Calif.). Cell layer: rabbit antibodies against PKCα (sc-208), PKCε (sc-214), activated JNK (sc-12882), activated Akt Thr 308 (sc-166646R) and caveolin-1 (sc-894) from Santa Cruz Biotechnology (Santa Cruz, Calif.); rabbit antibodies against ERK 1/2 (9102), activated ERK 1/2 (9106), JNK (9252), Akt (9272), MEK 1/2 (9122), and activated MEK 1/2 (9121) from Cell Signaling (Beverly, Mass.); mouse monoclonal anti-ASMA (clone 1A4) from Sigma (Saint Louis, Mo.), and mouse monoclonal anti-actin (MAB1501) from Chemicon International (Temecula, Calif.).
# (§4) Immunoreactive bands were quantified by densitometry using the Image 1.32J NIH software. For statistical analysis the raw densitometric data were processed and analyzed using the Prism 3.0 (GraphPad Software Inc.) statistical analysis software.
# [2] = test system: eNOS; conditions: endothelial cells; Bernatchez et al. (4); cited from earlier work
# [3] = test system: normal lung fibroblasts (NLF); assay: Immunocytochemistry and laser confocal microscopy of CSD peptide-treated NLF; format: cell-based, human
# Experimental: (§5) NLF or SLF cultured in 4-well glass chamber slides (Nalge Nunc International, Naperville, Ill.) as previously described (43) were incubated with CSD peptide or scrambled (Scr) peptide, fixed, permeabilized, and stained red with 7-aminoactinomycin D to detect nuclei and green using appropriate primary and secondary antibodies to detect caveolin-1 or ph-ERK. Images were captured by confocal microscopy.
# as §5, with “ph-JNK” for “caveolin-1”, “ph-Akt.” for “ph-ERK.”
# NLF and SLF were cultured in 4-well glass chamber slides (Nalge Nunc International, Naperville, Ill.) and stained as previously described (43) using the indicated primary antibodies and appropriate secondary antibodies tagged with Alexa Fluoro® 488 (Molecular Probes, Eugene, Oreg.). Nuclei were stained with 7-aminoactinomycin D (Molecular Probes, Eugene, Oreg.). Images were acquired using a Zeiss 510SML Laser Confocal Microscope (excitation S490/20, emission D528/38) fitted with an oil-immersion objective (40×/1.4).
# [4] = test system: scleroderma lung fibroblasts (SLF); assay: CSD peptide treatment of SLF, Western blotting; format: cell-based, human
# Excerpt: as §1, §2, §3, §4
# [5] = 5 μM CSD peptide vs scrambled peptide
# [6] = 5 μM CSD peptide vs scrambled peptide, collagen in culture medium, Western blotting
# [7] = CSD peptide vs scrambled peptide
sequence,measurement,setting,value
DGIWKASFTTFTVTKYWFYR [CSD peptide],time in which inhibition of collagen expression occurs,[1]; 5 μM CSD,less than 5 hours
same,decrease of MEK/ERK activation,[1]; [5],about 50%
same,inhibition of collagen expression,[1]; [6],> 95%
same,activation of Akt,[1]; CSD peptide vs Scr peptide,inhibited
same,activation of JNK,[1]; CSD peptide vs Scr peptide,inhibited
same,"expression of total MEK, total ERK, total Akt, or total JNK",[1]; CSD peptide vs Scr peptide,did not affect
same,"expression of caveolin-1 itself, PKCα, or PKCε",[1]; [7],did not affect
same,tenascin-C expression,[1]; [7],inhibited
same,eNOS activity,[2],most strongly inhibited
same,distribution of caveolin-1 staining,[3]; CSD peptide vs Scr peptide,staining associated with the plasma membrane becoming more prominent
same,level of caveolin-1 expression detected by IHC,[3]; CSD peptide vs Scr peptide,did not affect
same,distribution of activated Akt staining,[3]; CSD peptide vs control peptide,"preferentially decreased perinuclear, nuclear, and cytoplasmic staining while increasing staining associated with the plasma membrane"
same,distribution of activated JNK staining,[3]; CSD peptide vs control peptide,preferentially decreased perinuclear staining and increased staining associated with the plasma membrane
same,level of activated Akt (IHC),[3]; CSD peptide vs control peptide,decreases
same,level of activated ERK (IHC),[3]; CSD peptide vs control peptide,decreases
same,level of activated JNK (IHC),[3]; CSD peptide vs control peptide,decreases
same,localization of residual activated ERK staining,[3]; after CSD peptide,primarily perinuclear and cytoplasmic
same,time in which inhibition of collagen expression occurs,[4]; 5 μM CSD,less than 5 hours
same,decrease of MEK/ERK activation,[4]; [5],about 50%
same,inhibition of collagen expression,[4]; [6],> 95%
same,activation of Akt,[4]; CSD peptide vs Scr peptide,inhibited
same,activation of JNK,[4]; CSD peptide vs Scr peptide,inhibited
same,"expression of total MEK, total ERK, total Akt, or total JNK",[4]; CSD peptide vs Scr peptide,did not affect
same,ASMA expression,[4]; [7],inhibited
same,"expression of caveolin-1 itself, PKCα, or PKCε",[4]; [7],did not affect
same,tenascin-C expression,[4]; [7],inhibited
